Measurements reported in the NIST ThermoML archive (doi:10.1016/j.jct.2018.12.006).

Assay: molar heat capacity at constant pressure
Settings: Crystal, Small (less than 1 g) adiabatic calorimetry

C[N+](C)(C)C[C@H](O)CC(=O)[O-] [(R)-3-hydroxy-4-(trimethylammonio)butanoate]
Settings | molar heat capacity at constant pressure [J/K/mol]
5 K, 101.33 kPa | 0.29
6.08 K, 100 kPa | 0.53
6.27 K, 100 kPa | 0.571
6.41 K, 100 kPa | 0.622
6.56 K, 100 kPa | 0.669
6.69 K, 100 kPa | 0.727
6.83 K, 100 kPa | 0.774
6.95 K, 100 kPa | 0.787
7.08 K, 100 kPa | 0.832
7.19 K, 100 kPa | 0.851
7.48 K, 100 kPa | 0.985
7.82 K, 100 kPa | 1.107
8.18 K, 100 kPa | 1.278
8.52 K, 100 kPa | 1.441
8.75 K, 100 kPa | 1.53
9.06 K, 100 kPa | 1.689
9.34 K, 100 kPa | 1.836
9.62 K, 100 kPa | 2.018
9.93 K, 100 kPa | 2.207
10 K, 101.33 kPa | 2.25
10.24 K, 100 kPa | 2.402
10.56 K, 100 kPa | 2.616
10.88 K, 100 kPa | 2.869
11.21 K, 100 kPa | 3.127
11.62 K, 100 kPa | 3.417
11.9 K, 100 kPa | 3.675
12.69 K, 100 kPa | 4.369
13.96 K, 100 kPa | 5.657
15 K, 101.33 kPa | 6.89
15.22 K, 100 kPa | 7.205
16.5 K, 100 kPa | 8.836
17.79 K, 100 kPa | 10.57
19.1 K, 100 kPa | 12.27
20 K, 101.33 kPa | 13.41
20.43 K, 100 kPa | 13.99
22.35 K, 100 kPa | 16.18
24.86 K, 100 kPa | 19.02
25 K, 101.33 kPa | 19.34
27.27 K, 100 kPa | 21.98
29.7 K, 100 kPa | 24.73
30 K, 101.33 kPa | 25.01
32.15 K, 100 kPa | 27.39
34.61 K, 100 kPa | 30.12
35 K, 101.33 kPa | 30.61
37.06 K, 100 kPa | 32.92
39.52 K, 100 kPa | 35.77
40 K, 101.33 kPa | 36.27
41.98 K, 100 kPa | 38.6
44.45 K, 100 kPa | 41.3
45 K, 101.33 kPa | 41.94
46.92 K, 100 kPa | 43.9
49.4 K, 100 kPa | 46.7
50 K, 101.33 kPa | 47.51
51.56 K, 100 kPa | 49.36
53.43 K, 100 kPa | 51.37
55.31 K, 100 kPa | 53.34
57.23 K, 100 kPa | 55.32
59.08 K, 100 kPa | 57.13
60 K, 101.33 kPa | 57.97
60.96 K, 100 kPa | 58.68
62.84 K, 100 kPa | 60.64
64.71 K, 100 kPa | 62.32
66.57 K, 100 kPa | 64.28
68.43 K, 100 kPa | 65.98
70 K, 101.33 kPa | 67.35
70.29 K, 100 kPa | 67.73
72.16 K, 100 kPa | 69.2
74.04 K, 100 kPa | 70.9
75.9 K, 100 kPa | 72.29
77.76 K, 100 kPa | 74.17
79.61 K, 100 kPa | 75.69
80 K, 101.33 kPa | 75.9
81.77 K, 100 kPa | 77.54
84.24 K, 100 kPa | 79.31
84.82 K, 100 kPa | 79.43
86.69 K, 100 kPa | 81.13
88.65 K, 100 kPa | 82.96
90 K, 101.33 kPa | 83.98
92.22 K, 100 kPa | 85.77
95.79 K, 100 kPa | 88.51
99.36 K, 100 kPa | 91.34
100 K, 101.33 kPa | 91.81
102.92 K, 100 kPa | 94.28
106.48 K, 100 kPa | 96.97
110 K, 101.33 kPa | 99.54
110.02 K, 100 kPa | 99.66
113.57 K, 100 kPa | 102.4
117.1 K, 100 kPa | 105
120 K, 101.33 kPa | 107.5
120.63 K, 100 kPa | 107.7
124.16 K, 100 kPa | 110.4
127.68 K, 100 kPa | 113
130 K, 101.33 kPa | 114.7
131.19 K, 100 kPa | 115.4
134.7 K, 100 kPa | 117.9
138.2 K, 100 kPa | 120.5
140 K, 101.33 kPa | 121.6
141.66 K, 100 kPa | 122.9
145.14 K, 100 kPa | 125.4
148.61 K, 100 kPa | 127.8
150 K, 101.33 kPa | 128.6
152.07 K, 100 kPa | 130.3
155.53 K, 100 kPa | 132.7
158.97 K, 100 kPa | 135
160 K, 101.33 kPa | 135.8
162.41 K, 100 kPa | 137.4
165.85 K, 100 kPa | 139.7
169.27 K, 100 kPa | 142.1
170 K, 101.33 kPa | 142.8
172.68 K, 100 kPa | 144.4
176.08 K, 100 kPa | 146.7
179.48 K, 100 kPa | 149
180 K, 101.33 kPa | 149.2
182.87 K, 100 kPa | 151.1
186.24 K, 100 kPa | 153.1
189.61 K, 100 kPa | 154.7
190 K, 101.33 kPa | 154.7
192.97 K, 100 kPa | 156.2
196.22 K, 100 kPa | 157.8
199.57 K, 100 kPa | 159.7
200 K, 101.33 kPa | 160.1
202.89 K, 100 kPa | 161.9
203.31 K, 100 kPa | 162.1
206.21 K, 100 kPa | 163.8
206.83 K, 100 kPa | 163.9
209.52 K, 100 kPa | 165.7
210 K, 101.33 kPa | 166
210.24 K, 100 kPa | 166.4
212.83 K, 100 kPa | 167.6
213.66 K, 100 kPa | 168.2
216.13 K, 100 kPa | 169.6
219.43 K, 100 kPa | 171.7
220 K, 101.33 kPa | 172.2
222.71 K, 100 kPa | 173.9
225.97 K, 100 kPa | 176
229.25 K, 100 kPa | 178.3
230 K, 101.33 kPa | 178.6
232.54 K, 100 kPa | 180.4
235.81 K, 100 kPa | 182.5
239.07 K, 100 kPa | 184.6
240 K, 101.33 kPa | 185.1
242.32 K, 100 kPa | 186.7
245.56 K, 100 kPa | 188.8
248.62 K, 100 kPa | 190.6
250 K, 101.33 kPa | 191.6
251.85 K, 100 kPa | 192.6
255.07 K, 100 kPa | 194.8
257.5 K, 100 kPa | 196.2
260 K, 101.33 kPa | 198.2
260.89 K, 100 kPa | 199.2
264.26 K, 100 kPa | 200.6
267.64 K, 100 kPa | 203.5
270 K, 101.33 kPa | 205
271 K, 100 kPa | 205.7
273.15 K, 101.33 kPa | 207.2
274.35 K, 100 kPa | 208.2
277.7 K, 100 kPa | 210.3
280 K, 101.33 kPa | 211.9
281.03 K, 100 kPa | 212.6
284.35 K, 100 kPa | 214.7
287.63 K, 100 kPa | 217.8
290 K, 101.33 kPa | 218.9
290.92 K, 100 kPa | 219.8
294.21 K, 100 kPa | 221
297.46 K, 100 kPa | 224.2
298.15 K, 101.33 kPa | 224.7
300 K, 101.33 kPa | 226
300.21 K, 100 kPa | 225.9
302.94 K, 100 kPa | 227.7
306.14 K, 100 kPa | 230.3
309.33 K, 100 kPa | 232.6
310 K, 101.33 kPa | 233.1
312.5 K, 100 kPa | 234.8
315.65 K, 100 kPa | 237.1
318.79 K, 100 kPa | 239.5
320 K, 101.33 kPa | 240.1
321.91 K, 100 kPa | 241.3
325.01 K, 100 kPa | 243.5
328.09 K, 100 kPa | 245.8
330 K, 101.33 kPa | 247.2
331.16 K, 100 kPa | 248.1
334.21 K, 100 kPa | 250.7
337.21 K, 100 kPa | 251.9
340 K, 101.33 kPa | 254.2
340.22 K, 100 kPa | 254.1
343.21 K, 100 kPa | 256.3
346.17 K, 100 kPa | 258.6
350 K, 101.33 kPa | 261
